Test results: US7807714B2, “Fungicidal compositions” (Syngenta Crop Protection, Inc., priority 2006, dated 2010)
“And” between values parts separate entries of the source, which are not always exact repeats. Identical values can stand only once. Like-named read-outs stand apart in the source and are kept apart here.

Legend:
Type in all cases: cell-based
Fusarium Graminearum = settings: 48 hrs
Rhizoctonia Solani = assay: Activity against Rhizoctonia Solani (growth inhibition in PDB, microtiter plate, photometric); settings: 48 hrs
Gäumannomyces Graminis = assay: Activity Against Gäumannomyces Graminis (growth inhibition in PDB, microtiter plate, photometric); settings: 72 hrs
Pythium Ultimum = assay: Activity against Pythium Ultimum (growth inhibition in PDB, microtiter plate, photometric); settings: 48 hrs
Pyrenophora Graminea = assay: Activity against Pyrenophora Graminea (growth inhibition in PDB, microtiter plate, photometric); settings: 72 hrs
[1] = 0.03125 ppm (mg active ingredient/liter final medium)
[2] = 0.0625 ppm (mg active ingredient/liter final medium)
[3] = 0.125 ppm (mg active ingredient/liter final medium)
[4] = 0.25 ppm (mg active ingredient/liter final medium)
[5] = 0.5 ppm (mg active ingredient/liter final medium)
[6] = 1.0 ppm (mg active ingredient/liter final medium)
[7] = 0.0039 ppm (mg active ingredient/liter final medium)
[8] = 0.0078 ppm (mg active ingredient/liter final medium)

Cn1cc(C(=O)Nc2ccccc2C2CC2C2CC2)c(C(F)F)n1 (racemic) [Cpd A]
Observed control in % (% Cobs) (Fusarium Graminearum; [1]): 0%
Observed control in % (% Cobs) (Fusarium Graminearum; [2]): 2.0% and 4.2%
Observed control in % (% Cobs) (Fusarium Graminearum; [3]): 3.5%
Observed control in % (% Cobs) (Fusarium Graminearum; [4]): 10.5% and 4.0%
Observed control in % (% Cobs) (Fusarium Graminearum; [5]): 9.3%
Observed control in % (% Cobs) (Fusarium Graminearum; [6]): 6.6% and 5.8%
Observed control in % (% Cobs) (Rhizoctonia Solani; [2]): 0%
Observed control in % (% Cobs) (Rhizoctonia Solani; [3]): 22.8% and 23.0% and 29.3% and 40.2%
Observed control in % (% Cobs) (Rhizoctonia Solani; [4]): 73.2%
Observed control in % (% Cobs) (Gäumannomyces Graminis; [3]): 0%
Observed control in % (% Cobs) (Gäumannomyces Graminis; [5]): 0%
Observed control in % (% Cobs) (Gäumannomyces Graminis; [6]): 19.4%
Observed control in % (% Cobs) (Pythium Ultimum; [7]): 0%
Observed control in % (% Cobs) (Pythium Ultimum; [8]): 0%
Observed control in % (% Cobs) (Pythium Ultimum; [1]): 0%
Observed control in % (% Cobs) (Pyrenophora Graminea; 0.002 ppm (mg active ingredient/liter final medium)): 0%
Observed control in % (% Cobs) (Pyrenophora Graminea; [7]): 1.3% and 3.3%
Observed control in % (% Cobs) (Pyrenophora Graminea; [8]): 0%
Observed control in % (% Cobs) (Pyrenophora Graminea; 0.0156 ppm (mg active ingredient/liter final medium)): 0%
Observed control in % (% Cobs) (Pyrenophora Graminea; [1]): 0% and 5.8%
Observed control in % (% Cobs) (Pyrenophora Graminea; [2]): 4.0%
Observed control in % (% Cobs) (Pyrenophora Graminea; [3]): 0%
Observed control in % (% Cobs) (Pyrenophora Graminea; [6]): 0%
